{"source": "patent US8664199B2", "about": "“Method and system for reversal of interactions between hydrophobically modified biopolymers and vesicles or cell membranes” (University of Maryland, College Park, priority 2010, dated 2014)", "key": {"human heparinized blood [1]": {"test_system": "human heparinized blood", "experiment": "Visual observation / vial inversion of blood gelled by hm-chitosan", "type": "cell-based", "details": "3 wt % α-CD added to blood gel formed with 0.25 wt % hm-chitosan", "experimental": "(§1) 5 human subjects volunteered to have 20 mL of blood drawn by a registered nurse at the UMD School of Medicine. Subjects were healthy adults ranging age from 20 to 40 years of age (4 males, 1 female). 10 mL intervals of blood were drawn into Becton Dickinson Vacutainers® containing 143 USP units of sodium heparin. The protocol was approved by the Institutional Research Board (IRB) at UMD.\nFIG. 3(a) is a photograph of human heparinized blood gelled by 0.25 wt % hm-chitosan. […] Note that this sample […] hold its own weight upon vial inversion."}, "human heparinized blood [2]": {"test_system": "human heparinized blood", "experiment": "Dynamic rheology of hm-chitosan blood gel", "type": "cell-based", "details": "3 wt % α-CD, 0.25 wt % hm-chitosan blood gel, 37° C.", "experimental": "as §1\n(§2) Steady and dynamic rheological experiments were performed on a […] AR2000 stress-controlled rheometer. A cone-and-plate geometry of 40 mm diameter and 4° cone angle was used and samples were run at the physiological temperature of 37° C. Dynamic frequency spectra were obtained in the linear viscoelastic regime of the samples, as determined from dynamic strain sweep experiments."}, "[3]": {"experiment": "Steady shear rheology of hm-chitosan + vesicle mixtures", "type": "physicochemical", "details": "for zero-shear viscosity: hm-chitosan (benz-C18, 1.5% modified) 0.238 wt %, 37° C.; for zero-shear viscosity / viscosity drop on addition of cyclodextrin: vesicles 0.952 wt %; for viscosity drop on addition of cyclodextrin: 28.6 mM vs 0 mM cyclodextrin, hm-chitosan 0.238 wt %; for reversal of gelation of vesicles by hm-chitosan: hm-chitosan and vesicle mixtures", "source_text": "(§3) The surfactant system employed was a mixture of the cationic surfactant, cetyl trimethylammonium tosylate (CTAT), and the anionic surfactant, sodium dodecyl benzene sulfonate (SDBS). The surfactants were purchased from Aldrich, and all solutions were made using distilled-deionized water. The phase diagram for CTAT/SDBS mixtures has been reported previously.^31 To form vesicles, CTAT and SDBS were mixed at a weight ratio of 70/30, respectively, at a combined 2 wt % concentration in water. The mixture was stirred overnight to ensure complete dissolution and equilibration of the vesicles prior to experiments.\nas §2\nThe concentrations of hm-chitosan and vesicles were held constant at 0.238 wt % and 0.952 wt %, respectively, in both samples. One sample contained 0 mM α-CD (open diamonds) and the other contained 28.6 mM α-CD (open circles)."}, "[4]": {"experiment": "Dynamic rheology of hm-chitosan + vesicle mixtures", "type": "physicochemical", "details": "28.6 mM cyclodextrin; hm-chitosan 0.238 wt %, vesicles 0.952 wt %", "source_text": "as §3, §2\nHowever, at practical time scales, the hm-chitosan+vesicle+α-CD mixture behaves as a freely flowing liquid."}, "[5]": {"details": "general statement, no test described; cited from earlier work"}}, "note": "“Also recorded” adds a separate entry of the source."}
{"smiles": "OC[C@H]1O[C@@H]2O[C@H]3[C@H](O)[C@@H](O)[C@@H](O[C@H]4[C@H](O)[C@@H](O)[C@@H](O[C@H]5[C@H](O)[C@@H](O)[C@@H](O[C@H]6[C@H](O)[C@@H](O)[C@@H](O[C@H]7[C@H](O)[C@@H](O)[C@@H](O[C@H]1[C@H](O)[C@H]2O)O[C@@H]7CO)O[C@@H]6CO)O[C@@H]5CO)O[C@@H]4CO)O[C@@H]3CO", "note": "[α-CD, α-cyclodextrin]", "values": [{"measurement": "reversal of blood gelation (visual observation)", "setting": "human heparinized blood [1]", "value": "quickly reverse the gelling and convert the sample into a thin, flowing liquid; also recorded: instantly reverse the gelling and convert the sample into a thin, flowing liquid; also recorded: disruption of the gel into a freely flowing viscous liquid"}, {"measurement": "dynamic rheology response (G′, G″) of blood gel after supramolecule", "setting": "human heparinized blood [2]", "value": "liquid-like with G″>G′ over the frequency range"}, {"measurement": "zero-shear viscosity", "setting": "[3]; 28.6 mM cyclodextrin", "value": "~0.01", "unit": "Pa·s"}, {"measurement": "viscosity drop on addition of cyclodextrin", "setting": "[3]", "value": "million-fold"}, {"measurement": "reversal of gelation of vesicles by hm-chitosan", "setting": "[3]", "value": "reverse the gelation of vesicles by hm-chitosan"}, {"measurement": "dynamic rheology behaviour as ω→0 (long time scales)", "setting": "[4]", "value": "G′ and G″ are observed to overlap, indicating the onset of gelation over long time scales"}, {"measurement": "dynamic rheology response", "setting": "[4]", "value": "viscous liquid"}, {"measurement": "solubility (solvent)", "setting": "[5]", "value": "soluble in water"}]}
{"smiles": "OC[C@H]1O[C@@H]2O[C@H]3[C@H](O)[C@@H](O)[C@@H](O[C@H]4[C@H](O)[C@@H](O)[C@@H](O[C@H]5[C@H](O)[C@@H](O)[C@@H](O[C@H]6[C@H](O)[C@@H](O)[C@@H](O[C@H]7[C@H](O)[C@@H](O)[C@@H](O[C@H]8[C@H](O)[C@@H](O)[C@@H](O[C@H]1[C@H](O)[C@H]2O)O[C@@H]8CO)O[C@@H]7CO)O[C@@H]6CO)O[C@@H]5CO)O[C@@H]4CO)O[C@@H]3CO", "note": "[β-CD, β-cyclodextrin]", "values": [{"measurement": "solubility (solvent)", "setting": "[5]", "value": "more soluble in ethyl alcohol"}]}
{"smiles": "OC[C@H]1O[C@@H]2O[C@H]3[C@H](O)[C@@H](O)[C@@H](O[C@H]4[C@H](O)[C@@H](O)[C@@H](O[C@H]5[C@H](O)[C@@H](O)[C@@H](O[C@H]6[C@H](O)[C@@H](O)[C@@H](O[C@H]7[C@H](O)[C@@H](O)[C@@H](O[C@H]8[C@H](O)[C@@H](O)[C@@H](O[C@H]9[C@H](O)[C@@H](O)[C@@H](O[C@H]1[C@H](O)[C@H]2O)O[C@@H]9CO)O[C@@H]8CO)O[C@@H]7CO)O[C@@H]6CO)O[C@@H]5CO)O[C@@H]4CO)O[C@@H]3CO", "note": "[γ-CD, γ-cyclodextrin]", "values": [{"measurement": "zero-shear viscosity", "setting": "[3]; 0 mM cyclodextrin, in Pa·s", "value": "~10^1"}, {"measurement": "viscosity drop relative to the drop caused by α-CD", "setting": "[3]; 28.6 mM cyclodextrin", "value": "thousand-fold lower"}, {"measurement": "viscosity drop on addition of cyclodextrin", "setting": "[3]", "value": "thousand-fold"}, {"measurement": "reversal of gelation of vesicles by hm-chitosan", "setting": "[3]", "value": "reverse the gelation of vesicles by hm-chitosan"}, {"measurement": "dynamic rheology behaviour as ω→0 (long time scales)", "setting": "[4]", "value": "G′ and G″ are not observed to overlap, indicating that the sample does not become more gel-like as t→∞"}, {"measurement": "dynamic rheology response", "setting": "[4]", "value": "viscous liquid"}, {"measurement": "solubility (solvent)", "setting": "[5]", "value": "soluble in water"}]}
